Experimental findings from patent US12577234B2, “Antagonists of the muscarinic acetylcholine receptor M4” (Vanderbilt University, priority 2017, dated 2026) are described below.

The target of the assay is T1, human mAChR M4 (Homo sapiens, UniProt P08173).
T1 construct: expressed in transfected cells; host or cells: CHO-K1 (ATCC), stably co-expressing chimeric G protein Gqi5
T1 sequence (P08173 1-479): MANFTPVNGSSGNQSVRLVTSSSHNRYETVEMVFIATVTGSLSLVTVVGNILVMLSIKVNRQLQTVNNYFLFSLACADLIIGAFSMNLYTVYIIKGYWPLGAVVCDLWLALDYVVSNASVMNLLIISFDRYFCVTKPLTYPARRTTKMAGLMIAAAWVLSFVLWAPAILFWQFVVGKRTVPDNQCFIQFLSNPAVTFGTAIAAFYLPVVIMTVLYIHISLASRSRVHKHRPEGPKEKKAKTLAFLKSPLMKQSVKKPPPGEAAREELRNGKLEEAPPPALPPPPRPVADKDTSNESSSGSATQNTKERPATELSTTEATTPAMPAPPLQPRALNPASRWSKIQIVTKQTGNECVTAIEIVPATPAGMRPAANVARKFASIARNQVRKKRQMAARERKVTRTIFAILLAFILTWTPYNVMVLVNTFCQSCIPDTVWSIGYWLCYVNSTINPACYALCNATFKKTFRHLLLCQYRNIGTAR
In words: mAChR M4 cell-based functional assay (calcium mobilization, EC80 acetylcholine), human M4. Particulars: Table 10; for IC50: M4/Gqi5/CHO-K1 cells, decrease of EC80 acetylcholine response. The gist of the method: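 CHO-K1 cells stably expressing human M4 with chimeric Gqi5; intracellular calcium rise read on FDSS as fluorescence static ratio at 1 Hz. Compounds in 10-point 1:3 dilution series; IC50 taken as concentration-dependent decrease of the EC80 acetylcholine response, four-parameter logistic fit.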
(In general: Calcium assays in cells follow changes in intracellular calcium, usually with a dye or a luminescent sensor.)

As usually defined, the IC50 is the point on the concentration scale where inhibition reaches its midpoint. On to `CC(=O)Nc1ccc(-c2cnc(N[C@H]3C[C@@H]4CN(CC5CC6C=CC5C6)C[C@@H]4C3)cn2)cc1` (stereo partly drawn) [Compound 157, N-[4-[5-[[(3aR,5s,6aS)-2-(5-bicyclo[2.2.1]hept-2-enylmethyl)-3,3a,4,5,6,6a-hexahydro-1H-cyclopenta[c]pyrrol-5-yl]amino]pyrazin-2-yl]phenyl]acetamide], for which the “Human M4 Emin” value is on record as 5% and the IC50 is 0.0529 µM.

Turning to `CC(=O)Nc1ccc(-c2cnc(N[C@H]3C[C@@H]4CN(CC5CCOCC5)C[C@@H]4C3)cn2)cc1` [Compound 158, N-[4-[5-[[(3aR,5s,6aS)-2-(tetrahydropyran-4-ylmethyl)-3,3a,4,5,6,6a-hexahydro-1H-cyclopenta[c]pyrrol-5-yl]amino]pyrazin-2-yl]phenyl]acetamide], the “Human M4 Emin” value is recorded as 10% and the IC50 is 1.09 µM.

`Fc1ccc(Cl)c(-c2ccc(N[C@@H]3C[C@@H]4CN(CC5CCOCC5)C[C@@H]4C3)nn2)c1` [Compound 159, (3aR,5r,6aS)-N-[6-(2-chloro-5-fluoro-phenyl)pyridazin-3-yl]-2-(tetrahydropyran-4-ylmethyl)-3,3a,4,5,6,6a-hexahydro-1H-cyclopenta[c]pyrrol-5-amine]: the “Human M4 Emin” value is on record as 4% and the IC50 was 0.0841 µM.

On to `Fc1ccc(Cl)c(-c2ccc(N[C@H]3C[C@@H]4CN(Cc5ccccn5)C[C@@H]4C3)nn2)c1` [Compound 160, (3aR,5s,6aS)-N-[6-(2-chloro-5-fluoro-phenyl)pyridazin-3-yl]-2-(2-pyridylmethyl)-3,3a,4,5,6,6a-hexahydro-1H-cyclopenta[c]pyrrol-5-amine], for which the “Human M4 Emin” value is 3% and the IC50 was 0.00403 µM.

As to `Fc1ccc(Cl)c(-c2ccc(N[C@H]3C[C@@H]4CN(Cc5cccnc5)C[C@@H]4C3)nn2)c1` [Compound 161, (3aR,5s,6aS)-N-[6-(2-chloro-5-fluoro-phenyl)pyridazin-3-yl]-2-(3-pyridylmethyl)-3,3a,4,5,6,6a-hexahydro-1H-cyclopenta[c]pyrrol-5-amine], the “Human M4 Emin” value was determined as 5% and the IC50 is 0.0541 µM.

Turning to `Fc1ccc(Cl)c(-c2ccc(N[C@H]3C[C@@H]4CN(Cc5ccncc5)C[C@@H]4C3)nn2)c1` [Compound 162, (3aR,5s,6aS)-N-[6-(2-chloro-5-fluoro-phenyl)pyridazin-3-yl]-2-(4-pyridylmethyl)-3,3a,4,5,6,6a-hexahydro-1H-cyclopenta[c]pyrrol-5-amine], the “Human M4 Emin” value came to 3% and the IC50 turned out to be 0.00452 µM.

Turning to `Fc1ccc(CN2C[C@H]3C[C@H](Nc4ccc(-c5cc(F)ccc5Cl)nn4)C[C@H]3C2)cc1` [Compound 163, (3aR,5s,6aS)-N-[6-(2-chloro-5-fluoro-phenyl)pyridazin-3-yl]-2-[(4-fluorophenyl)methyl]-3,3a,4,5,6,6a-hexahydro-1H-cyclopenta[c]pyrrol-5-amine], the “Human M4 Emin” value came out at 3% and the IC50 is 0.0197 µM.

As to `Fc1ccc(Cl)c(-c2ccc(N[C@H]3C[C@@H]4CN(Cc5cnc6ccccc6c5)C[C@@H]4C3)nn2)c1` [Compound 164, (3aR,5s,6aS)-N-[6-(2-chloro-5-fluoro-phenyl)pyridazin-3-yl]-2-(3-quinolylmethyl)-3,3a,4,5,6,6a-hexahydro-1H-cyclopenta[c]pyrrol-5-amine], the “Human M4 Emin” value came to 3% and the IC50 is 0.065 µM.

In the case of `Fc1ccc(Cl)c(-c2ccc(N[C@H]3C[C@@H]4CN(Cc5cn6ccccc6n5)C[C@@H]4C3)nn2)c1` [Compound 165, (3aR,5s,6aS)-N-[6-(2-chloro-5-fluoro-phenyl)pyridazin-3-yl]-2-(imidazo[1,2-a]pyridin-2-ylmethyl)-3,3a,4,5,6,6a-hexahydro-1H-cyclopenta[c]pyrrol-5-amine], the “Human M4 Emin” value was found to be 3% and the IC50 stood at 0.0689 µM.

As to `Fc1ccc(Cl)c(-c2ccc(N[C@H]3C[C@@H]4CN(Cc5ccc6c(c5)OCO6)C[C@@H]4C3)nn2)c1` [Compound 166, (3aR,5s,6a5)-2-(1,3-benzodioxol-5-ylmethyl)-N-[6-(2-chloro-5-fluoro-phenyl)pyridazin-3-yl]-3,3a,4,5,6,6a-hexahydro-1H-cyclopenta[c]pyrrol-5-amine], the “Human M4 Emin” value is recorded as 2% and the IC50 stood at 0.00619 µM.

In the case of `Fc1ccc(Cl)c(-c2ccc(N[C@H]3C[C@@H]4CN(Cc5cccc6c5OCO6)C[C@@H]4C3)nn2)c1` [Compound 167, (3aR,5s,6aS)-2-(1,3-benzodioxol-4-ylmethyl)-N-[6-(2-chloro-5-fluoro-phenyl)pyridazin-3-yl]-3,3a,4,5,6,6a-hexahydro-1H-cyclopenta[c]pyrrol-5-amine], the “Human M4 Emin” value is given as 2% and the IC50 turned out to be 0.0391 µM.

On to `COc1ccc(CN2C[C@H]3C[C@H](Nc4ccc(-c5cc(F)ccc5Cl)nn4)C[C@H]3C2)cc1` [Compound 168, (3aR,5s,6aS)-N-[6-(2-chloro-5-fluoro-phenyl)pyridazin-3-yl]-2-[(4-methoxyphenyl)methyl]-3,3a,4,5,6,6a-hexahydro-1H-cyclopenta[c]pyrrol-5-amine], for which the “Human M4 Emin” value amounted to 2% and the IC50 stood at 0.0115 µM.

In the case of `Fc1ccc(Cl)c(-c2ccc(N[C@H]3C[C@@H]4CN(CC5CC5)C[C@@H]4C3)nn2)c1` [Compound 169, (3aR,5s,6aS)-N-[6-(2-chloro-5-fluoro-phenyl)pyridazin-3-yl]-2-(cyclopropylmethyl)-3,3a,4,5,6,6a-hexahydro-1H-cyclopenta[c]pyrrol-5-amine], the “Human M4 Emin” value was determined as 3% and the IC50 stood at 0.0188 µM.

Turning to `Fc1ccc(Cl)c(-c2ccc(N[C@H]3C[C@@H]4CN(Cc5cnccn5)C[C@@H]4C3)nn2)c1` [Compound 170, (3aR,5s,6aS)-N-[6-(2-chloro-5-fluoro-phenyl)pyridazin-3-yl]-2-(pyrazin-2-ylmethyl)-3,3a,4,5,6,6a-hexahydro-1H-cyclopenta[c]pyrrol-5-amine], the “Human M4 Emin” value came out at 5% and the half-inhibitory concentration (IC50) stood at 0.0543 µM.

Turning to `CC1(CN2C[C@H]3C[C@H](Nc4ccc(-c5cc(F)ccc5Cl)nn4)C[C@H]3C2)COC1` [Compound 171, (3aR,5s,6aS)-N-[6-(2-chloro-5-fluoro-phenyl)pyridazin-3-yl]-2-[(3-methyloxetan-3-yl)methyl]-3,3a,4,5,6,6a-hexahydro-1H-cyclopenta[c]pyrrol-5-amine], the “Human M4 Emin” value amounted to 4% and the IC50 came to 0.0843 µM.

`CS(=O)(=O)Nc1ccc(CN2C[C@H]3C[C@H](Nc4ccc(-c5cc(F)ccc5Cl)nn4)C[C@H]3C2)cc1` [Compound 172, N-[4-[[(3aR,5s,6aS)-5-[[6-(2-chloro-5-fluoro-phenyl)pyridazin-3-yl]amino]-3,3a,4,5,6,6a-hexahydro-1H-cyclopenta[c]pyrrol-2-yl]methyl]phenyl]methanesulfonamide]: the “Human M4 Emin” value was 3% and the half-maximal inhibitory concentration (IC50) turned out to be 0.0427 µM.

As to `CC1(C)CC(CN2C[C@H]3C[C@H](Nc4ccc(-c5cc(F)ccc5Cl)nn4)C[C@H]3C2)CCO1` (stereo partly drawn) [Compound 173, (3aR,5s,6aS)-N-[6-(2-chloro-5-fluoro-phenyl)pyridazin-3-yl]-2-[(2,2-dimethyltetrahydropyran-4-yl)methyl]-3,3a,4,5,6,6a-hexahydro-1H-cyclopenta[c]pyrrol-5-amine], the “Human M4 Emin” value was found to be 3% and the IC50 was 0.00332 µM.

Regarding `COc1ccccc1CN1C[C@H]2C[C@H](Nc3ccc(-c4cc(F)ccc4Cl)nn3)C[C@H]2C1` [Compound 174, (3aR,5s,6aS)-N-[6-(2-chloro-5-fluoro-phenyl)pyridazin-3-yl]-2-[(2-methoxyphenyl)methyl]-3,3a,4,5,6,6a-hexahydro-1H-cyclopenta[c]pyrrol-5-amine], the “Human M4 Emin” value amounted to 4% and the IC50 was 0.207 µM.

For the compound `Fc1cccc(CN2C[C@H]3C[C@H](Nc4ccc(-c5cc(F)ccc5Cl)nn4)C[C@H]3C2)c1` [Compound 175, (3aR,5s,6aS)-N-[6-(2-chloro-5-fluoro-phenyl)pyridazin-3-yl]-2-[(3-fluorophenyl)methyl]-3,3a,4,5,6,6a-hexahydro-1H-cyclopenta[c]pyrrol-5-amine], the “Human M4 Emin” value is reported as 3% and the IC50 came out at 0.0297 µM.

For the compound `Fc1ccc(Cl)c(-c2ccc(N[C@H]3C[C@@H]4CN(Cc5ccco5)C[C@@H]4C3)nn2)c1` [Compound 176, (3aR,5s,6aS)-N-[6-(2-chloro-5-fluoro-phenyl)pyridazin-3-yl]-2-(2-furylmethyl)-3,3a,4,5,6,6a-hexahydro-1H-cyclopenta[c]pyrrol-5-amine], the “Human M4 Emin” value was 3% and the IC50 stood at 0.0261 µM.

Consider `CC(C)CN1C[C@H]2C[C@H](Nc3ccc(-c4cc(F)ccc4Cl)nn3)C[C@H]2C1` [Compound 177, (3aR,5s,6aS)-N-[6-(2-chloro-5-fluoro-phenyl)pyridazin-3-yl]-2-isobutyl-3,3a,4,5,6,6a-hexahydro-1H-cyclopenta[c]pyrrol-5-amine], for which the “Human M4 Emin” value is reported as 3% and the IC50 was determined as 0.00502 µM.
